Reference: US10562908B2, “Ortho substituted phenylpyrazolo- and phenylpyrrolo-pyridazine derivatives having multimodal activity against pain” (priority 2016, dated 2020)
Read-outs that look alike come from different tables or passages of the source.

Legend:
[1] = molecular target: T1, human μ-opioid receptor (Homo sapiens, UniProt P35372); test: Human μ-opioid receptor radioligand assay ([3H]-DAMGO); type: binding
T1 construct: expressed in transfected cells; host or cells: CHO-K1
Experimental: Human μ-Opioid Receptor Radioligand Assay
To investigate binding properties of test compounds to human μ-opioid receptor, transfected CHO-K1 cell membranes and [^3H]-DAMGO (Perkin Elmer, ES-542-C), as the radioligand, were used. The assay was carried out with 20 μg of membrane suspension, 1 nM of [^3H]-DAMGO in either absence or presence of either buffer or 10 μM Naloxone for total and non-specific binding, respectively. Binding buffer contained Tris-HCl 50 mM, MgCl2 5 mM at pH 7.4. Plates were incubated at 27° C. for 60 minutes. After the incubation period, the reaction mix was then transferred to MultiScreen HTS, FC plates (Millipore), filtered and plates were washed 3 times with ice-cold 10 mM Tris-HCL (pH 7.4). Filters were dried and counted at approximately 40% efficiency in a MicroBeta scintillation counter (Perkin-Elmer) using EcoScint liquid scintillation cocktail, preferably, transfected CHO-K1 cell membranes (20 μg) were incubated with 1 nM of [^3H]-DAMGO in assay buffer containing Tris-HCl 50 mM, MgCl2 5 mM at pH 7.4. NBS (non-specific binding) was measured by adding 10 μM Naloxone. The binding of the test compound was measured at five different concentrations. Plates were incubated at 27° C. for 60 minutes. After the incubation period, the reaction mix was then transferred to MultiScreen HTS, FC plates (Millipore), filtered and plates were washed 3 times with ice-cold 10 mM Tris-HCL (pH 7.4). Filters were dried and counted at approximately 40% efficiency in a MicroBeta scintillation counter (Perkin-Elmer) using EcoScint liquid scintillation cocktail.

[2] = molecular target: Human α2δ-1 subunit of Cav2.2 calcium channel (Homo sapiens, UniProt P54289); test: Human α2δ-1 subunit of Cav2.2 calcium channel assay ([3H]-Gabapentin); type: binding
Experimental: Human α2δ-1 Subunit of Cav2.2 Calcium Channel Assay
Human α2δ-1 enriched membranes (2.5 μg) were incubated with 15 nM of radiolabeled [3H]-Gabapentin in assay buffer containing Hepes-KOH 10 mM, pH 7.4. NSB (non specific binding) was measured by adding 10 μM pregabalin. After 60 min incubation at 27° C., binding reaction was terminated by filtering through Multiscreen GF/C (Millipore) presoaked in 0.5% polyethyleneimine in Vacuum Manifold Station, followed by 3 washes with ice-cold filtration buffer containing 50 mM Tris-HCl, pH 7.4. Filter plates were dried at 60° C. for 1 hour and 30 μl of scintillation cocktail were added to each well before radioactivity reading. Readings were performed in a Trilux 1450 Microbeta radioactive counter (Perkin Elmer), i.e. Human α2δ-1 enriched membranes (2.5 μg) were incubated with 15 nM of radiolabeled [3H]-Gabapentin in assay buffer containing Hepes-KOH 10 mM, pH 7.4. NSB (non specific binding) was measured by adding 10 μM pregabalin. The binding of the test compound was measured at five different concentrations. After 60 min incubation at 27° C., binding reaction was terminated by filtering through Multiscreen GF/C (Millipore) presoaked in 0.5% polyethyleneimine in Vacuum Manifold Station, followed by 3 washes with ice-cold filtration buffer containing 50 mM Tris-HCl, pH 7.4. Filter plates were dried at 60° C. for 1 hour and 30 μl of scintillation cocktail were added to each well before radioactivity reading. Readings were performed in a Trilux 1450 Microbeta radioactive counter (Perkin Elmer).

[3] = transfected CHO-K1 cell membranes, 1 nM [3H]-DAMGO, read-out: Binding μ (Ki)
[4] = human α2δ-1 enriched membranes, 15 nM [3H]-Gabapentin, read-out: Binding α2δ-1 (Ki)

T1 sequence (P35372 whole entry): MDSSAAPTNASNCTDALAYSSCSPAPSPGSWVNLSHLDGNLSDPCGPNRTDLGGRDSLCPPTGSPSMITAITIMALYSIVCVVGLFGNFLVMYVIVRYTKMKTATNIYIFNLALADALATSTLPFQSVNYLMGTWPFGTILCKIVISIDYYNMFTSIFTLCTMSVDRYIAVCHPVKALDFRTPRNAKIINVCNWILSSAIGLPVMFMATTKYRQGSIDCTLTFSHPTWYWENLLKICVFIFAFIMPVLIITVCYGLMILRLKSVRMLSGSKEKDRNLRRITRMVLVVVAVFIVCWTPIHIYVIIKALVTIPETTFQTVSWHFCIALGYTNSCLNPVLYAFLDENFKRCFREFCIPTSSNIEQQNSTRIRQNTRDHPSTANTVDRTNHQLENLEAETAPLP
Chain of Human α2δ-1 subunit of Cav2.2 calcium channel (P54289 25-1103): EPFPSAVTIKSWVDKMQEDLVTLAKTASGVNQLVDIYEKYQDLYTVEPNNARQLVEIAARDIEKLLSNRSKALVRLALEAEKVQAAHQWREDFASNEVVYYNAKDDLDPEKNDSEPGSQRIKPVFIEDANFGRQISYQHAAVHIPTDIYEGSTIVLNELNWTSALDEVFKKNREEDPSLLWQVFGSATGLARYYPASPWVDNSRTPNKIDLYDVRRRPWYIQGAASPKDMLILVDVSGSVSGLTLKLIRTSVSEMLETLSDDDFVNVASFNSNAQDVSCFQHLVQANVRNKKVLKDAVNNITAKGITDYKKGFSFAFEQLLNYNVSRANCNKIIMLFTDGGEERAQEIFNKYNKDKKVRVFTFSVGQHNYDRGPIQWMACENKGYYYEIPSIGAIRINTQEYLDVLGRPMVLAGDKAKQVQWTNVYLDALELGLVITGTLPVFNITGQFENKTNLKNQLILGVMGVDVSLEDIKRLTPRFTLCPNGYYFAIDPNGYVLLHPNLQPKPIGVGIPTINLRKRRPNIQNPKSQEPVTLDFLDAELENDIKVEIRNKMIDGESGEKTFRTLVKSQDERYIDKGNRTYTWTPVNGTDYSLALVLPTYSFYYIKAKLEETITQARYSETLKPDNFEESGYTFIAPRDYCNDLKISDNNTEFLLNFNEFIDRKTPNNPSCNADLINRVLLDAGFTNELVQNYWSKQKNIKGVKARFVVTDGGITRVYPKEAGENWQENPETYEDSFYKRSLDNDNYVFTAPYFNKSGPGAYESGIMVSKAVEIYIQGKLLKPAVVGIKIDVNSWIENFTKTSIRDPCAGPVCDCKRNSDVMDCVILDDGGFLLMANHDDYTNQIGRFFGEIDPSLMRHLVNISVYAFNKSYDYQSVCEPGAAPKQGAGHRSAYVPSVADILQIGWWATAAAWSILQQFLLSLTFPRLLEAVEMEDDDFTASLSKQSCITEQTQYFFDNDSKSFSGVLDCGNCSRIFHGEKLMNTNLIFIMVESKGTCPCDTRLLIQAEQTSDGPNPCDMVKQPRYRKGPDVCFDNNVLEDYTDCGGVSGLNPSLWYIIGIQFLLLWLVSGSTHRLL

Row | SMILES | Ki [1, 3] [nM] | Ki [2, 4] [nM] | Ki [1] [nM] | Ki [2] [nM]
1 | Cc1nnc(N(C)C)c2nn(-c3ccccc3OC(CCN(C)C)c3ccccc3)c(C)c12 (centres unmarked) [Example 52, 2-(2-(3-(Dimethylamino)-1-phenylpropoxy)phenyl)-N,N,3,4-tetramethyl-2H-pyrazolo[3,4-d]pyridazin-7-amine] | – | – | 100 to 500 | 500 to 5000
2 | Cc1nnc(N(C)C)c2nn(-c3ccccc3OC3CCN(CCc4ccccc4)C3)c(C)c12 (centres unmarked) [Example 55, N,N,3,4-tetramethyl-2-(2-((1-phenethylpyrrolidin-3-yl)oxy)phenyl)-2H-pyrazolo[3,4-d]pyridazin-7-amine] | – | – | 100 to 500 | 500 to 5000
3 | Cc1nnc(N(C)C)c2nn(-c3ccccc3OC(CCNCC(F)F)c3ccccc3)c(C)c12 (centres unmarked) [Example 56, 2-(2-(3-((2,2-difluoroethyl)amino)-1-phenylpropoxy)phenyl)-N,N,3,4-tetramethyl-2H-pyrazolo[3,4-d]pyridazin-7-amine] | – | – | 100 to 500 | 500 to 5000
4 | Cc1nnc(N(C)C)c2nn(-c3ccccc3OCC3CCN(CCc4ccccc4)CC3)c(C)c12 [Example 58, N,N,3,4-tetramethyl-2-(2-((1-phenethylpiperidin-4-yl)methoxy)phenyl)-2H-pyrazolo[3,4-d]pyridazin-7-amine] | – | – | < 100 | > 5000
5 | CNCCC(Oc1ccccc1-n1c(C)c2c(C)nnc(C)c2c1C)c1ccccc1 (centres unmarked) [Example 65, N-Methyl-3-phenyl-3-(2-(1,4,5,7-tetramethyl-6H-pyrrolo[3,4-d]pyridazin-6-yl)phenoxy)propan-1-amine] | – | – | 100 to 500 | 500 to 5000
6 | CNCCC(Oc1ccccc1-n1nc2c(NC)nnc(C)c2c1C)c1ccccc1 (centres unmarked) [Example 68, N,3,4-Trimethyl-2-(2-(3-(methylamino)-1-phenylpropoxy)phenyl)-2H-pyrazolo[3,4-d]pyridazin-7-amine] | > 500 | 500 to 5000 | – | –
7 | CNCCC(Oc1ccccc1-n1nc2c(C)nnc(C)c2c1C)c1ccccc1 (centres unmarked) [Example 69, N-methyl-3-phenyl-3-(2-(3,4,7-trimethyl-2H-pyrazolo[3,4-d]pyridazin-2-yl)phenoxy)propan-1-amine] | > 500 | > 5000 | – | –
8 | CNCCC(Oc1ccccc1-n1nc2c(C(C)C)nnc(C)c2c1C)c1ccccc1 (centres unmarked) [Example 70, 3-(2-(7-isopropyl-3,4-dimethyl-2H-pyrazolo[3,4-d]pyridazin-2-yl)phenoxy)-N-methyl-3-phenylpropan-1-amine] | > 500 | > 5000 | – | –
9 | CNCCC(Oc1ccccc1-n1cc2cnnc(N(C)C)c2n1)c1ccccc1 (centres unmarked) [Example 71, N,N-dimethyl-2-(2-(3-(methylamino)-1-phenylpropoxy)phenyl)-2H-pyrazolo[3,4-d]pyridazin-7-amine] | > 500 | 500 to 5000 | – | –
10 | CNCc1ccccc1COc1ccccc1-n1nc2c(N(C)C)nnc(C)c2c1C [Example 72, N,N,3,4-Tetramethyl-2-(2-((2-((methylamino)methyl)benzyl)oxy)phenyl)-2H-pyrazolo[3,4-d]pyridazin-7-amine] | > 500 | 500 to 5000 | – | –
11 | Cc1nnc(N(C)C)c2nn(-c3ccccc3OC(CCNCCF)c3ccccc3)c(C)c12 (centres unmarked) [Example 73, 2-(2-(3-((2-Fluoroethyl)amino)-1-phenylpropoxy)phenyl)-N,N,3,4-tetramethyl-2H-pyrazolo[3,4-d]pyridazin-7-amine] | – | – | < 100 | 500 to 5000
12 | Cc1nnc(N(C)C)c2nn(-c3ccccc3OC(Cc3ccccc3)CN(C)Cc3ccccc3)c(C)c12 (centres unmarked) [Example 74, 2-(2-((1-(Benzyl(methyl)amino)-3-phenylpropan-2-yl)oxy)phenyl)-N,N,3,4-tetramethyl-2H-pyrazolo[3,4-d]pyridazin-7-amine] | > 500 | > 5000 | – | –
13 | Cc1nnc(N(C)C)c2nn(-c3ccccc3OC(CCN(C)Cc3ccccc3)Cc3ccccc3)c(C)c12 (centres unmarked) [Example 75, 2-(2-((4-(benzyl(methyl)amino)-1-phenylbutan-2-yl)oxy)phenyl)-N,N,3,4-tetramethyl-2H-pyrazolo[3,4-d]pyridazin-7-amine] | > 500 | > 5000 | – | –
14 | CNCC(Cc1ccccc1)Oc1ccccc1-n1nc2c(N(C)C)nnc(C)c2c1C (centres unmarked) [Example 76, N,N,3,4-Tetramethyl-2-(2-((1-(methylamino)-3-phenylpropan-2-yl)oxy)phenyl)-2H-pyrazolo[3,4-d]pyridazin-7-amine] | > 500 | 500 to 5000 | – | –

Second part, led by results:

Row | Ki [1, 3] [nM] | Ki [2, 4] [nM] | SMILES | Ki [1] [nM] | Ki [2] [nM]
15 | > 500 | > 5000 | Cc1nnc(N(C)C)c2nn(-c3ccccc3OC3CCN(C)C3)c(C)c12 (centres unmarked) [Example 53, N,N,3,4-tetramethyl-2-(2-((1-methylpyrrolidin-3-yl)oxy)phenyl)-2H-pyrazolo[3,4-d]pyridazin-7-amine] | – | –
16 | > 500 | > 5000 | Cc1nnc(N(C)C)c2nn(-c3ccccc3OC(c3ccccc3)C3CCN(C)CC3)c(C)c12 (centres unmarked) [Example 54, N,N,3,4-tetramethyl-2-(2-((1-methylpiperidin-4-yl)(phenyl)methoxy)phenyl)-2H-pyrazolo[3,4-d]pyridazin-7-amine] | – | –
17 | > 500 | > 5000 | Cc1nnc(N(C)C)c2nn(-c3ccccc3OCC3CCN(Cc4ccccc4)CC3)c(C)c12 [Example 57, 2-(2-((1-benzylpiperidin-4-yl)methoxy)phenyl)-N,N,3,4-tetramethyl-2H-pyrazolo[3,4-c]pyridazin-7-amine] | – | –
18 | > 500 | 500 to 5000 | CNCCC(Oc1ccccc1-n1nc2c(N(C)CCO)nnc(C)c2c1C)c1ccccc1 (centres unmarked) [Example 59, 2-((3,4-Dimethyl-2-(2-(3-(methylamino)-1-phenylpropoxy)phenyl)-2H-pyrazolo[3,4-d]pyridazin-7-yl)(methyl)amino)etanol] | – | –
19 | > 500 | 500 to 5000 | CNCCC(Oc1ccccc1-n1nc2c(N(C)CCOC)nnc(C)c2c1C)c1ccccc1 (centres unmarked) [Example 60, N-(2-methoxyethyl)-N,3,4-trimethyl-2-(2-(3-(methylamino)-1-phenylpropoxy)phenyl)-2H-pyrazolo[3,4-d]pyridazin-7-amine] | – | –
20 | > 500 | 500 to 5000 | CNCCC(Oc1ccccc1-n1nc2c(N(C)CCCO)nnc(C)c2c1C)c1ccccc1 (centres unmarked) [Example 61, 3-((3,4-dimethyl-2-(2-(3-(methylamino)-1-phenylpropoxy)phenyl)-2H-pyrazolo[3,4-d]pyridazin-7-yl)(methyl)amino)propan-1-ol] | – | –
21 | > 500 | 500 to 5000 | CNCCC(Oc1ccccc1-n1nc2c(N(C)CCN(C)C)nnc(C)c2c1C)c1ccccc1 (centres unmarked) [Example 62, N1-(3,4-dimethyl-2-(2-(3-(methylamino)-1-phenylpropoxy)phenyl)-2H-pyrazolo[3,4-d]pyridazin-7-yl)-N1,N2,N2-trimethylethane-1,2-diamine] | – | –
22 | > 500 | > 5000 | CNCCC(Oc1ccccc1-n1nc2c(CC#N)nnc(C)c2c1C)c1ccccc1 (centres unmarked) [Example 63, 2-(3,4-Dimethyl-2-(2-(3-(methylamino)-1-phenylpropoxy)phenyl)-2H-pyrazolo[3,4-d]pyridazin-7-yl)acetonitrile] | – | –
23 | > 500 | > 5000 | CNCCC(Oc1ccccc1-n1nc2c(Cc3noc(C)n3)nnc(C)c2c1C)c1ccccc1 (centres unmarked) [Example 64, 3-(2-(3,4-Dimethyl-7-((5-methyl-1,2,4-oxadiazol-3-yl)methyl)-2H-pyrazolo[3,4-d]pyridazin-2-yl)phenoxy)-N-methyl-3-phenylpropan-1-amine] | – | –
24 | > 500 | > 5000 | CNCCC(Oc1ccccc1-n1nc2cnnc(C)c2c1C)c1ccccc1 (centres unmarked) [Example 66, 3-(2-(3,4-Dimethyl-2H-pyrazolo[3,4-d]pyridazin-2-yl)phenoxy)-N-methyl-3-phenylpropan-1-amine] | – | –
25 | > 500 | 500 to 5000 | CNCC(Oc1ccccc1-n1nc2c(N(C)C)nnc(C)c2c1C)c1ccccc1 (centres unmarked) [Example 67, N,N,3,4-Tetramethyl-2-(2-(2-(methylamino)-1-phenylethoxy)phenyl)-2H-pyrazolo[3,4-d]pyridazin-7-amine] | – | –
